Legend:
[1] = system: JFH1-based recombinants of genotypes 1a, 1b, 2a, 2b, and 6a; format: cell-based, hepatitis C virus
[2] = system: JFH1 cultures or cultures with genotype 1a (H77), 1b (Con1) or 2a (J6) JFH1-based recombinants; settings: previous studies; cited from earlier work
[3] = system: J6/JFH; settings: previous studies; cited from earlier work

Row | Compound | effect of treatment on infected cells and supernatant HCV RNA titers (in words) [1] | production of infectious virus (in words) [2] | replication of J6/JFH (in words) [3] | decrease in supernatant HCV RNA titers [1] [log] | decrease in the number of infected cells [1] [%]
1 | NC12CC3CC(CC(C3)C1)C2 [amantadine] | no apparent effect | did not decrease production of infectious virus |  |  | 
2 | NC(=O)c1ncn([C@@H]2O[C@H](CO)[C@@H](O)[C@H]2O)n1 [ribavirin] | no apparent effect | did not decrease production of infectious virus |  |  | 
3 | interferon-α2b |  |  | decreased replication | ~2 | > 60

— US8563706B2, “Efficient cell culture system for hepatitis C virus genotype 1A and 1B” (priority 2007, dated 2013)
